This note sets out measurements from ChEMBL document CHEMBL3132769, “Fragment growing to retain or alter the selectivity of anchored kinase hinge-binding fragments” (Medchemcomm, 2014).

The target of experiment [1] is T1, cGMP-dependent protein kinase 1 (Homo sapiens) (UniProt Q13976).
T1 sequence (whole entry): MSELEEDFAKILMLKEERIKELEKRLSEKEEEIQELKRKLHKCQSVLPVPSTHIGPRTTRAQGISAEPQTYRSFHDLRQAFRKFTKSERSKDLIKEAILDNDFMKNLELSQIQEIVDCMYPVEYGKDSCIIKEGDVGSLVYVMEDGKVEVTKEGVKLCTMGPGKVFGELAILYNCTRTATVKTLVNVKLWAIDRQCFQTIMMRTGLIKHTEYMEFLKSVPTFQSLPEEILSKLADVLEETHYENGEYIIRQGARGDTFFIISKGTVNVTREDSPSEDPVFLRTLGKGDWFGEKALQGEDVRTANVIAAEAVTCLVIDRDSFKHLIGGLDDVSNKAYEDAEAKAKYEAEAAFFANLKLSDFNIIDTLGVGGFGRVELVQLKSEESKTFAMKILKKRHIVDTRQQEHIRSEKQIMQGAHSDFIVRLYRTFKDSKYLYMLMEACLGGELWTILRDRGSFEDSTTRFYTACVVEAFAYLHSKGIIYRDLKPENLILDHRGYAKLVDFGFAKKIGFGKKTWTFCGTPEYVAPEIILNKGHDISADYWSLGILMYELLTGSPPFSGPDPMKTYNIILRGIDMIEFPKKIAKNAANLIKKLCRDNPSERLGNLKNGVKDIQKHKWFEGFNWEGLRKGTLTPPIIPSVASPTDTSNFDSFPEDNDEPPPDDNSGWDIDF
As to conditions: 0.1 uM.
Description: Inhibition of human full length PKG-1a expressed in baculovirus assessed as substrate phosphorylation using fluorescence-labelled peptides as substrate at 0.1 uM after 90 mins by microfluidic peptide phosphorylation assay

Experiment [2] deals with T2, Protein kinase C epsilon type (Homo sapiens) (UniProt Q02156).
T2 sequence (whole entry): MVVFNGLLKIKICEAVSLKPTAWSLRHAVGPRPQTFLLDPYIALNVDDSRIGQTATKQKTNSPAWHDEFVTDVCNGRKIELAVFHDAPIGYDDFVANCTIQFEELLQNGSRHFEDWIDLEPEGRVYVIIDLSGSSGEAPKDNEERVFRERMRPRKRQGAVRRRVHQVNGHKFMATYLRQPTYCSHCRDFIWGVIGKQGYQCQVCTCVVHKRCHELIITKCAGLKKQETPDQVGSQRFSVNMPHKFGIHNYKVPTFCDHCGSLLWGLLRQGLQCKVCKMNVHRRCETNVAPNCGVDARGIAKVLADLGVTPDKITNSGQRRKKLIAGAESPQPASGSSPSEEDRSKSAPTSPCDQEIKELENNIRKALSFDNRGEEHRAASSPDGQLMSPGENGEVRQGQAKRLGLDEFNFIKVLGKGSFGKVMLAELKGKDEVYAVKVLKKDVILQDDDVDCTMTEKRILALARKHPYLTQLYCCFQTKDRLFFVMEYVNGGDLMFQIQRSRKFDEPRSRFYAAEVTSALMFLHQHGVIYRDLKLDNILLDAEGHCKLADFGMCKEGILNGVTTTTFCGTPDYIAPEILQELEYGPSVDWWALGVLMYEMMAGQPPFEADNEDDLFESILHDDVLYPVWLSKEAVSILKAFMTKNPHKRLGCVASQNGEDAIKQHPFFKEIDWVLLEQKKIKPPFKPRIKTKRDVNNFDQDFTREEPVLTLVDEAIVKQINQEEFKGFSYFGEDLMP
The following applies: 0.1 uM.
Description: Inhibition of human truncated PKC epsilon expressed in baculovirus assessed as substrate phosphorylation using fluorescence-labelled peptides as substrate at 0.1 uM after 90 mins by microfluidic peptide phosphorylation assay

In experiment [3] the target is Casein kinase I isoform delta (Homo sapiens) (UniProt P48730). The experiment is described as follows: Inhibition of human CK1D catalytic domain expressed in Escherichia coli cell assessed as substrate phosphorylation using fluorescence-labelled peptides as substrate at 0.1 uM after 90 mins by microfluidic peptide phosphorylation assay.
Casein kinase I isoform delta (Homo sapiens), sequence (P48730 whole entry, looked up, the tested form may be a part, canonical isoform): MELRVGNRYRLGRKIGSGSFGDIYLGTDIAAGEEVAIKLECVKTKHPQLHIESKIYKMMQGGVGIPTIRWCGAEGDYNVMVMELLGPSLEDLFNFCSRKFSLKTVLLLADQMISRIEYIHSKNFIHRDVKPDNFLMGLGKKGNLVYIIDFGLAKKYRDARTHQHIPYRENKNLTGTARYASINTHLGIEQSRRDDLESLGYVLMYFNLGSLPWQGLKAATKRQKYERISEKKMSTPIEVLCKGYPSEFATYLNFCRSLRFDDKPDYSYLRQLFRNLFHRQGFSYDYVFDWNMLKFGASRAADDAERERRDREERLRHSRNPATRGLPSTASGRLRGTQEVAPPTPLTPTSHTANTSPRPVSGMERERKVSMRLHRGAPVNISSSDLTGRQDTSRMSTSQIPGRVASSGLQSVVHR
In experiment [4] the test system is Tyrosine-protein kinase ABL1 (Homo sapiens), P00519 [T315I]. The experiment is described as follows: Inhibition of human truncated ABL T315I mutant expressed in baculovirus assessed as substrate phosphorylation using fluorescence-labelled peptides as substrate at 0.06 uM after 90 mins by microfluidic peptide phosphorylation assay.
The target of experiment [5] is Dual specificity tyrosine-phosphorylation-regulated kinase 1A (Rattus norvegicus) (UniProt Q63470). The experiment is described as follows: Inhibition of rat full length DYRK1a expressed in Escherichia coli cell assessed as substrate phosphorylation using fluorescence-labelled peptides as substrate at 0.06 uM after 90 mins by microfluidic peptide phosphorylation assay.

Experiment [6] addresses RAF proto-oncogene serine/threonine-protein kinase (Homo sapiens) (UniProt P04049). Kind of experiment: Inhibition of human truncated c-Raf expressed in baculovirus assessed as substrate phosphorylation using fluorescence-labelled peptides as substrate at 9 uM after 90 mins by microfluidic peptide phosphorylation assay.
Experiment [7] has as its target Epidermal growth factor receptor (Homo sapiens) (UniProt P00533). The experiment is described as follows: Inhibition of human EGFR catalytic domain expressed in baculovirus assessed as substrate phosphorylation using fluorescence-labelled peptides as substrate at 9 uM after 90 mins by microfluidic peptide phosphorylation assay.
The target in experiment [8] is Calcium/calmodulin-dependent protein kinase type II subunit gamma (Homo sapiens) (UniProt Q13555). The experiment is described as follows: Inhibition of human CAMK2 gamma catalytic domain expressed in baculovirus assessed as substrate phosphorylation using fluorescence-labelled peptides as substrate at 2 uM after 90 mins by microfluidic peptide phosphorylation assay.
Calcium/calmodulin-dependent protein kinase type II subunit gamma (Homo sapiens), sequence (Q13555 whole entry, the tested form may be a part): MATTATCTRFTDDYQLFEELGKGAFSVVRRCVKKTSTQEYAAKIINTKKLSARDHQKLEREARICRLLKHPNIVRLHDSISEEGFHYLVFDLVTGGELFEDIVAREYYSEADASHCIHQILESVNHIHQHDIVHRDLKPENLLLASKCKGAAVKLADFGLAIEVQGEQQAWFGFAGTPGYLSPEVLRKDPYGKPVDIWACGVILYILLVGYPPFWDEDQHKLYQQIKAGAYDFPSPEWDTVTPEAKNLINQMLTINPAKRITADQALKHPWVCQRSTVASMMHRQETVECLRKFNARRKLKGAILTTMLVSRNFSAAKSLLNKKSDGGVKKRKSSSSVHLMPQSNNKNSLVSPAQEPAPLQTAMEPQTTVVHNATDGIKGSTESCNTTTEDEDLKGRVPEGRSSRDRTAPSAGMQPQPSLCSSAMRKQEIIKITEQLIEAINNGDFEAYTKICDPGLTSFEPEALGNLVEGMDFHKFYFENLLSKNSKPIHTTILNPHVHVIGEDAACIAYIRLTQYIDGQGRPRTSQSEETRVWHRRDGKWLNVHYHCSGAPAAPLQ

Experiment [9] deals with MAP/microtubule affinity-regulating kinase 3 (Homo sapiens) (UniProt P27448). Kind of experiment: Inhibition of human full length c-TAK1 expressed in Escherichia coli cell assessed as substrate phosphorylation using fluorescence-labelled peptides as substrate at 95 uM after 90 mins by microfluidic peptide phosphorylation assay.
MAP/microtubule affinity-regulating kinase 3 (Homo sapiens), sequence (P27448 whole entry, looked up, the tested form may be a part): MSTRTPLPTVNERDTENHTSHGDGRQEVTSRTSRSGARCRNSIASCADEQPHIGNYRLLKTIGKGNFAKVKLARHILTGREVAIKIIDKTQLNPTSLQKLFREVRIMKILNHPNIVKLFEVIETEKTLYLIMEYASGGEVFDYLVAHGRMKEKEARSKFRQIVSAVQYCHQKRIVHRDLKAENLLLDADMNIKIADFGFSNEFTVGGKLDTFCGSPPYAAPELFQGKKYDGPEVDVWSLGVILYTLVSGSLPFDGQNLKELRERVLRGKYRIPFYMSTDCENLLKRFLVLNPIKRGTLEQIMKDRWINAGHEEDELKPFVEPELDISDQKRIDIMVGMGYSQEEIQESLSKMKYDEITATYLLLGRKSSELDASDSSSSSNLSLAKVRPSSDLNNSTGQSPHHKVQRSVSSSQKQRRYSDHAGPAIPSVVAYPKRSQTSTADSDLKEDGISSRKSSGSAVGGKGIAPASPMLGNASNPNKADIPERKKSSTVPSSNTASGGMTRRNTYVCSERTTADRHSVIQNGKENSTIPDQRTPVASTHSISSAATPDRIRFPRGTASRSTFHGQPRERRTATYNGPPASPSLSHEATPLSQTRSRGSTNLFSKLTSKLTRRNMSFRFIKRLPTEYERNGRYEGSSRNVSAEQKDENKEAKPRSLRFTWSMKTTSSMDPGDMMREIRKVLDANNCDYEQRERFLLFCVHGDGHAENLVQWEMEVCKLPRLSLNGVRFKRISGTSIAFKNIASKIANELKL
The target of experiment [10] is Protein kinase C alpha type (Homo sapiens) (UniProt P17252). Kind of experiment: Inhibition of human truncated PKC alpha expressed in baculovirus assessed as substrate phosphorylation using fluorescence-labelled peptides as substrate at 95 uM after 90 mins by microfluidic peptide phosphorylation assay.
Experiment [11] has as its target Dual specificity tyrosine-phosphorylation-regulated kinase 1A (Rattus norvegicus) (UniProt Q63470). The experiment is described as follows: Inhibition of rat full length DYRK1a expressed in Escherichia coli cell assessed as substrate phosphorylation using fluorescence-labelled peptides as substrate at 1000 uM after 90 mins by microfluidic peptide phosphorylation assay.

Broadly, the inhibition is the percentage by which the read-out fell short of the control.

RAF proto-oncogene serine/threonine-protein kinase (Homo sapiens), sequence (P04049 whole entry, the tested form may be a part): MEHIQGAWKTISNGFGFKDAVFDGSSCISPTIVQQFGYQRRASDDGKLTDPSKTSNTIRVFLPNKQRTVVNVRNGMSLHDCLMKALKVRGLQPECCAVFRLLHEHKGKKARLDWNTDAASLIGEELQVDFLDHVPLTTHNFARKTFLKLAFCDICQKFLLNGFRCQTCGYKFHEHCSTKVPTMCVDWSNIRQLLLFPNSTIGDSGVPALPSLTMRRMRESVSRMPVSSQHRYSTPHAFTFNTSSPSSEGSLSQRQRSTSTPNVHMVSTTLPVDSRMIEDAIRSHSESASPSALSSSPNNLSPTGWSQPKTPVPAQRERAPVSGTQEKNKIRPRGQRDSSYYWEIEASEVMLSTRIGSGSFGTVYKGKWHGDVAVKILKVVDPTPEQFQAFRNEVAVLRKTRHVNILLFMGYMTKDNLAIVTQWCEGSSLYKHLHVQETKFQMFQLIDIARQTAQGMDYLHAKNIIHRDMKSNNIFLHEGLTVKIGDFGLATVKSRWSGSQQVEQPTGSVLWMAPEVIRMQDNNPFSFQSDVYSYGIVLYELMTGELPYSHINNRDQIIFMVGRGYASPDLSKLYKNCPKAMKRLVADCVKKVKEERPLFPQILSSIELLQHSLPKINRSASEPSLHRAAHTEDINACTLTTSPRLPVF
Epidermal growth factor receptor (Homo sapiens), sequence (P00533 whole entry, the tested form may be a part): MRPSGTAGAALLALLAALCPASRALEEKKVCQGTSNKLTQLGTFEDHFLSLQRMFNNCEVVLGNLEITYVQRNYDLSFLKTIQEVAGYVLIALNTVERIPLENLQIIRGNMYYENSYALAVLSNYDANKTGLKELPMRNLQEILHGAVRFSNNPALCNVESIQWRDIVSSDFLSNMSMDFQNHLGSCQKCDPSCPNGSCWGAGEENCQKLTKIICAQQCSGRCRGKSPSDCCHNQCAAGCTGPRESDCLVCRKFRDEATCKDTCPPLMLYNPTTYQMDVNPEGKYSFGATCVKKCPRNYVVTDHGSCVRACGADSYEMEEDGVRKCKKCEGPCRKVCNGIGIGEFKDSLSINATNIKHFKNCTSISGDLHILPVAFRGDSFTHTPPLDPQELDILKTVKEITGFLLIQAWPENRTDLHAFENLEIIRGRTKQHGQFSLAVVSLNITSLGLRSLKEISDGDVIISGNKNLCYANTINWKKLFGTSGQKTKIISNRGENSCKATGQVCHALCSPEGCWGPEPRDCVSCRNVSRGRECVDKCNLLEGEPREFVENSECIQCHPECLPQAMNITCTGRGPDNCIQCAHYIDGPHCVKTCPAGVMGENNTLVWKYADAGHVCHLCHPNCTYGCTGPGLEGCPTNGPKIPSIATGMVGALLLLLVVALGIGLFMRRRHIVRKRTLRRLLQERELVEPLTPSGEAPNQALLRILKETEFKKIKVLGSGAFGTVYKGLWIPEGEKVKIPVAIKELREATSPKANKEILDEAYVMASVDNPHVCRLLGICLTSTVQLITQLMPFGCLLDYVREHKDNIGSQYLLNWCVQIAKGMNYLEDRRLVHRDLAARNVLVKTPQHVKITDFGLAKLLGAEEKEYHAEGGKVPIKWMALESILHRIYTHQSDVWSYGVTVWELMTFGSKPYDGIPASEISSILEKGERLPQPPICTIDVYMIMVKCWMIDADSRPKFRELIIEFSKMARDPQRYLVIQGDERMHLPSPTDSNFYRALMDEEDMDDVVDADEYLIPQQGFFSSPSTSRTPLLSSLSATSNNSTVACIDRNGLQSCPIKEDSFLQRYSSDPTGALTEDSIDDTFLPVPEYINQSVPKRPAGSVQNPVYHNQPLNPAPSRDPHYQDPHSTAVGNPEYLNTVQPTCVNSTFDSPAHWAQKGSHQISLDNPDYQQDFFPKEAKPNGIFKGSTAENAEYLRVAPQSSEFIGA

In the case of `C[C@H](CN(C)C)Oc1nc(Nc2cc3cccc(Cl)c3cn2)cnc1C#N`, the inhibition in experiment [1] worked out at 0%; in experiment [2] it was 0%; in [3], 9.5%.

Turning to `NC1(Cc2ccc(Cl)cc2)CCN(c2ncnc3[nH]ccc23)CC1`, the inhibition in experiment [4] and in experiment [5] was 0% each time.

Turning to `NCC1CN(c2ncnc3[nH]c4cnccc4c23)CCO1` (stereo unspecified), the inhibition in experiment [6] was determined as 7.5%; in experiment [7], 12%.

On to `NC1CCN(c2ncnc3[nH]ccc23)CC1`, for which the inhibition in [8] turned out to be 0%.

For `NCCc1ccc(-c2ncnc3[nH]cnc23)cc1`, the inhibition in [9] came to 18%; in [10], 69.5%.

On to `c1cnc2[nH]ccc2c1`, for which, in [11], the inhibition is 64.5%.
